Results as given in patent US8999966B2, “Compounds that are ERK inhibitors” (Merck Sharp & Dohme Corp., priority 2010, dated 2015).
pIC50: −log10 of the molar value.

These molecules were tested against fully phosphorylated, active Mouse ERK2 protein (Mus musculus, UniProt P63085) (assay: Active ERK2 assay (AERK2), IMAP format). Settings: activated ERK2, IMAP fluorescence polarization, 30 μM ATP.
Type: biochemical
Procedure: 14 μl of kinase buffer (10 mM Tris.HCl pH 7.2, 10 mM MgCl2, 0.01% Tween-20, 1 mM DTT) containing 0.4 ng unphosphorylated Mouse ERK2 protein can be added to each well of a black 384-well assay plate. […] DMSO concentration during initial incubation is 6.7%. ERK2 activity can be determined to be insensitive to DMSO concentrations up to 20%. ERK2 can then be activated and it's kinase activity can be measured by the addition of 10 μl kinase buffer with the following components (final concentration per reaction): 2 ng active (phosphorylated) human MEK1 protein and 4 μM (total) ERK2 IMAP substrate peptides (3.9 μM unlabeled IPTTPITTTYFFFK-CONH2 and 100 nM IPTTPITTTYFFFK(5-carboxyfluorescein)-CONH2) and 30 μM ATP. DMSO concentration during ERK activation can be 4%. After one hour, reactions can be terminated by addition of 60 μl IMAP detections beads in binding buffer (Molecular Devices). Binding can be allowed to equilibrate for 30 minutes before reading the plate on an LJL Analyst Fluorescence Polarization plate reader. […] Active compounds can be reconfirmed in an independent assay.
Activated ERK2 activity was also determined in the IMAP assay format using the procedure outlined above. 1 μl of 25× compound was added to 14 μl of kinase buffer containing 0.25 ng fully phosphorylated, active Mouse ERK2 protein. Following a 30 minute incubation, the reactions were initiated by addition of 10 μl of kinase buffer containing 1 μM ERK2 IMAP substrate peptide (0.9 μM unlabeled IPTTPITTTYFFFK-CONH2 and 100 nM IPTTPITTTYFFFK(5-carboxyfluorescein)-CONH2) and 30 μM ATP. Reactions proceeded for 30 minutes before termination by addition of 60 μl IMAP detection beads in binding buffer. Plates were read as above after 30 minute binding equilibration. Active compounds were reconfirmed in an independent assay.

Chain of fully phosphorylated, active Mouse ERK2 protein (P63085 whole entry): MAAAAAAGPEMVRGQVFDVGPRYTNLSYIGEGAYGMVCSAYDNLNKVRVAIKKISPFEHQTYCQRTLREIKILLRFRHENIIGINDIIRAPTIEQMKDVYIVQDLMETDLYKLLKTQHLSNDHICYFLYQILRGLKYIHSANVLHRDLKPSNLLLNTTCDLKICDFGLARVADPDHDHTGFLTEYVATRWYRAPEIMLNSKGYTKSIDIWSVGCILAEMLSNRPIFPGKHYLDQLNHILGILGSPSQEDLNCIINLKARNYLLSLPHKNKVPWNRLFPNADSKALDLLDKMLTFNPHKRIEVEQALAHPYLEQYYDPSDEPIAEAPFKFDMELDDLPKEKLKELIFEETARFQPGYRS

pIC50	SMILES
≤ 6.30	Cc1n[nH]c2ccc(-c3n[nH]c4ccc(-n5cc([C@@H]6CCCN(Cc7c(F)cccc7F)C6)nn5)cc34)cc12 [Example 247, 5-[4-[1-[(2,6- DIFLUOROPHENYL)METHYL]- 3(R)-PIPERIDINYL]-1H- 1,2,3-TRIAZOL-1-YL]-3′- METHYL-3,5′-BI-1H- INDAZOLE]
≤ 6.30	Fc1cccc(F)c1CN1CCC[C@@H](c2cn(-c3ccc4[nH]nc(-c5ccnc6[nH]ccc56)c4c3)nn2)C1 [Example 248, 5-[4-[1-[(2,6- DIFLUOROPHENYL)METHYL]- 3(R)-PIPERIDINYL]-1H- 1,2,3-TRIAZOL-1-YL]-3-(1H PYRROLO[2,3-b]PYRIDIN-4- YL)-1H-INDAZOLE]
7.98 to 9.52	Fc1ccccc1CN1CCOC(c2cn(-c3ccc4[nH]nc(-c5ccncc5)c4c3)nn2)C1 (centres unmarked) [Example 249, 5-[4-[4-[(2- FLUOROPHENYL)METHYL]- 2-MORPHOLINYL]-1H-1,2,3- TRIAZOL-1-YL]-3-(4- PYRIDINYL)-1H-INDAZOLE]
7.98 to 9.52	COc1cccc(F)c1CN1CCOC(c2cn(-c3ccc4[nH]nc(-c5ccncc5)c4c3)nn2)C1 (centres unmarked) [Example 251, 5-[4-[4-[(2-FLUORO-6- METHOXYPHENYL)METHYL]- 2-MORPHOLINYL]-1H- 1,2,3-TRIAZOL-1-YL]-3-(4- PYRIDINYL)-1H-INDAZOLE]
≤ 6.30	COc1cccc(F)c1CN1CC=CC[C@@H]1c1nc(-c2ccc3[nH]nc(-c4ccc5c(c4)CCO5)c3c2)n[nH]1 [Example 253, 3-(2,3-DIHYDRO-5- BENZOFURANYL)-5-[5-[1-[(2- FLUORO-6- METHOXYPHENYL)METHYL]- 1,2,3,6-TETRAHYDRO- 2(R)-PYRIDINYL]-1H-1,2,4- TRIAZOL-3-YL]-1H- INDAZOLE]
≤ 6.30	Fc1cccc(F)c1CN1CC=CC[C@@H]1c1nc(-c2ccc3[nH]nc(-c4ccc5c(c4)CCO5)c3c2)n[nH]1 [Example 254, 5-[5-[1-[(2,6- DIFLUOROPHENYL)METHYL]- 1,2,3,6-TETRAHYDRO- 2(R)-PYRIDINYL]-1H-1,2,4- TRIAZOL-3-YL]-3-(2,3- DIHYDRO-5- BENZOFURANYL)-1H- INDAZOLE]
≤ 6.30	C1=CCN(Cc2cccs2)[C@@H](c2nc(-c3ccc4[nH]nc(-c5ccc6c(c5)CCO6)c4c3)n[nH]2)C1 [Example 255, 3-(2,3-DIHYDRO-5- BENZOFURANYL)-5-[5- [1,2,3,6-TETRAHYDRO-1-(2- THIENYLMETHYL)-2(R)- PYRIDINYL]-1H-1,2,4- TRIAZOL-3-YL]-1H- INDAZOLE]
≤ 6.30	C1=CCN(Cc2ccon2)[C@@H](c2nc(-c3ccc4[nH]nc(-c5ccc6c(c5)CCO6)c4c3)n[nH]2)C1 [Example 256, 3-(2,3-DIHYDRO-5- BENZOFURANYL)-5-[5- [1,2,3,6-TETRAHYDRO-1-(3- ISOXAZOLYLMETHYL)-2(R)- PYRIDINYL]-1H-1,2,4- TRIAZOL-3-YL]-1H- INDAZOLE]
< 6.00	COc1cccc(F)c1CN1CCCCC1c1nc(-c2ccc3[nH]nc(-c4ccc5c(c4)CCO5)c3c2)n[nH]1 (centres unmarked) [Example 258, 3-(2,3-DIHYDRO-5- BENZOFURANYL)-5-[5-[1-[(2- FLUORO-6- METHOXYPHENYL)METHYL]- 2-PIPERIDINYL]-1H-1,2,4- TRIAZOL-3-YL]-1H- INDAZOLE]
< 6.00	COc1cccc(F)c1CN1CCCCC1c1nc(-c2ccc3[nH]nc(-c4ccc(OC(C)C)cc4)c3c2)n[nH]1 (centres unmarked) [Example 259, 5-[5-[1-[(2-FLUORO-6- METHOXYPHENYL)METHYL]- 2-PIPERIDINYL]-1H-1,2,4- TRIAZOL-3-YL]-3-[4-(1- METHYLETHOXY)PHENYL]- 1H-INDAZOLE]
≤ 6.30	c1csc(CN2CCC[C@@H](c3nc(-c4ccc5[nH]nc(-c6ccc7c(c6)CCO7)c5c4)n[nH]3)C2)c1 [Example 298, 3-(2,3-DIHYDRO-5- BENZOFURANYL)-5-[5-[1-(2- THIENYLMETHYL)-3(R)- PIPERIDINYL]-1H-1,2,4- TRIAZOL-3-YL]-1H- INDAZOLE]
≤ 6.30	CC(C)Oc1ccc(-c2n[nH]c3ccc(-c4n[nH]c([C@@H]5CCCN(Cc6c(F)cccc6F)C5)n4)cc23)cc1 [Example 299, 5-[5-[1-[(2,6- DIFLUOROPHENYL)METHYL]- 3(R)-PIPERIDINYL]-1H- 1,2,4-TRIAZOL-3-YL]-3-[4-(1- METHYLETHOXY)PHENYL]- 1H-INDAZOLE]
≤ 6.30	CC1(C)Cc2cc(-c3n[nH]c4ccc(-c5n[nH]c([C@@H]6CCCN(Cc7c(F)cccc7F)C6)n5)cc34)ccc2O1 [Example 300, 5-[5-[1-[(2,6- DIFLUOROPHENYL)METHYL]- 3(R)-PIPERIDINYL]-1H- 1,2,4-TRIAZOL-3-YL]-3-(2,3- DIHYDRO-2,2-DIMETHYL-5- BENZOFURANYL)-1H- INDAZOLE]
≤ 6.30	Fc1cccc(F)c1CN1CCC[C@@H](c2nc(-c3ccc4[nH]nc(-c5ccc(C(F)(F)F)cc5)c4c3)n[nH]2)C1 [Example 301, 5-[5-[1-[(2,6- DIFLUOROPHENYL)METHYL]- 3(R)-PIPERIDINYL]-1H- 1,2,4-TRIAZOL-3-YL]-3-[4- (TRIFLUOROMETHYL)PHEN- YL]-1H-INDAZOLE]
≤ 6.30	Fc1cccc(F)c1CN1CCC[C@@H](c2nc(-c3ccc4[nH]nc(-c5ccnc(F)c5F)c4c3)n[nH]2)C1 [Example 302, 5-[5-[1-[(2,6- DIFLUOROPHENYL)METHYL]- 3(R)-PIPERIDINYL]-1H- 1,2,4-TRIAZOL-3-YL]-3-(2,3- DIFLUORO-4-PYRIDINYL)- 1H-INDAZOLE]
≤ 6.30	Cc1noc(C)c1-c1n[nH]c2ccc(-c3n[nH]c([C@@H]4CCCN(Cc5c(F)cccc5F)C4)n3)cc12 [Example 303, 5-[5-[1-[(2,6- DIFLUOROPHENYL)METHYL]- 3(R)-PIPERIDINYL]-1H- 1,2,4-TRIAZOL-3-YL]-3-(3,5- DIMETHYL-4-ISOXAZOLYL)- 1H-INDAZOLE]
≤ 6.30	CC(C)Oc1ccc(-c2n[nH]c3ccc(-c4n[nH]c([C@@H]5CCCN(Cc6cccs6)C5)n4)cc23)cc1 [Example 304, 3-[4-(1- METHYLETHOXY)PHENYL]- 5-[5-[1-(2- THIENYLMETHYL)-3(R)- PIPERIDINYL]-1H-1,2,4- TRIAZOL-3-YL]-1H- INDAZOLE]
≤ 6.30	CC(C)Sc1ccc(-c2n[nH]c3ccc(-c4n[nH]c([C@@H]5CCCN(Cc6c(F)cccc6F)C5)n4)cc23)cc1 [Example 305, 5-[5-[1-[(2,6- DIFLUOROPHENYL)METHYL]- 3(R)-PIPERIDINYL]-1H- 1,2,4-TRIAZOL-3-YL]-3-[4-[(1- METHYLETHYL)THIO]PHEN- YL]-1H-INDAZOLE]
7.98 to 9.52	Fc1ccccc1CN1CCCC(c2nnc(-c3ccc4[nH]nc(-c5ccncc5)c4c3)o2)C1 (centres unmarked) [Example 306, 5-[5-[1-[(2- FLUOROPHENYL)METHYL]- 3-PIPERIDINYL]-1,3,4- OXADIAZOL-2-YL]-3-(4- PYRIDINYL)-1H-INDAZOLE]
< 6.00	c1ccc(CN2CCCC(c3nnc(-c4ccc5[nH]nc(-c6ccc7c(c6)CCO7)c5c4)o3)C2)cc1 (centres unmarked) [Example 307, 3-(2,3-DIHYDRO-5- BENZOFURANYL)-5-[5-[1- (PHENYLMETHYL)-3- (PIPERIDINYL]-1,3,4- OXADIAZOL-2-YL]-1H- INDAZOLE]
< 6.00	Clc1cc(-c2n[nH]c3ccc(-c4nnc(C5CCCN(Cc6ccccc6)C5)o4)cc23)ccn1 (centres unmarked) [Example 309, 3-(2-CHLORO-4-PYRIDINYL)- 5-[5-[1-(PHENYLMETHYL)-3- PIPERIDINYL]-1,3,4- OXADIAZOL-2-YL]-1H- INDAZOLE]
7.98 to 9.52	COc1cccc(F)c1CN1CCC[C@@H](c2nnc(-c3ccc4[nH]nc(-c5ccc(O)c(NC(C)=O)c5)c4c3)o2)C1 [Example 314, N-[5-[5-[5-[1-[(2-FLUORO-6- METHOXYPHENYL)METHYL]- 3(R)-PIPERIDINYL]-1,3,4- OXADIAZOL-2-YL]-1H- INDAZOL-3-YL]-2- HYDROXYPHENYL] ACETAMIDE]
≤ 6.30	CC(=O)Nc1cc(-c2n[nH]c3ccc(-c4nnc([C@@H]5CCCN(Cc6ccc7nccnc7c6)C5)o4)cc23)ccc1O [Example 316, N-[2-HYDROXY-5-[5-[5-[1-(6- QUINOXALINYLMETHYL)- 3(R)-PIPERIDINYL]-1,3,4- OXADIAZOL-2-YL]-1H- INDAZOL-3- YL]PHENYL]ACETAMIDE]
< 6.00	Cn1cc2cc(-c3n[nH]c4ccc(-c5nnc([C@@H]6CCCN(Cc7cc8ccccc8n7C)C6)o5)cc34)ccc2n1 [Example 321, 3-(2-METHYL-2H-INDAZOL- 5-YL)-5-[5-[1-[(1-METHYL- 1H-INDOL-2-YL)METHYL]- 3(R)-PIPERIDINYL]-1,3,4- OXADIAZOL-2-YL]-1H- INDAZOLE]
7.98 to 9.52	COc1cccc(F)c1CN1CCC[C@@H](c2nnc(-c3ccc4[nH]nc(-c5ccc6nn(C)cc6c5)c4c3)o2)C1 [Example 322, 5-[5-[1-[(2-FLUORO-6- METHOXYPHENYL)METHYL]- 3(R)-PIPERIDINYL]-1,3,4- OXADIAZOL-2-YL]-3-(2- METHYL-2H-INDAZOL-5- YL)-1H-INDAZOLE]
< 6.00	Cn1cc(CN2CCC[C@@H](c3nnc(-c4ccc5[nH]nc(-c6ccc7nccn7c6)c5c4)o3)C2)c2ccccc21 [Example 328, 3-IMIDAZO[1,2-a]PYRIDIN-6- YL-5-[5-[1-[(1-METHYL-1H- INDOL-3-YL)METHYL]-3(R)- PIPERIDINYL]-1,3,4- OXADIAZOL-2-YL]-1H- INDAZOLE]
